“Also recorded” adds a separate entry of the source.
Tests used:
eNOS = assay: Hepatic eNOS activity (conversion of labelled arginine to 14C-citrulline) in BDL rats; assay type: in vivo, rat; settings: BDL rats + infliximab vs BDL vehicle and sham
Protocol: FIG. 1 reports on the 14C-citrulline counts per minute per milligram of protein. This is a measure of eNOS activity. Experiments were carried out in bile-duct ligated (BDL) or sham treated rats. The bile duct ligated rats were treated with either infliximab (BDL+infliximab) or a vehicle (BDL).
(§1) These experiments utilised an established animal model of cirrhosis, the bile duct ligated (BDL) rat. BDL rats may be generated by methods known in the art. For example, male Sprague-Dawley rats (200-250 g) may be used for this procedure. Following anaesthetisation, a mid-line laparotamy may be performed, the bile duct exposed, triply ligated with 4.0 silk suture, and severed between the second and third ligature. The wound is then closed in layers with absorbable suture, and the animal allowed to recover in a quiet room before being returned to the animal storage facility.
(§2) After 5 days of treatment rats underwent direct portal pressure assessment and were then sacrificed, and plasma and liver tissue collected for analysis. eNOS activity was determined radiometrically by the conversion of labelled radioactive arginine to citrulline. Protein expression for eNOS, iNOS, DDAH-1, and DDAH-2 were measured by standard Western Blotting techniques. Liver biopsies were evaluated for histopathology with H+E, Van Giesen and reticulin stains.

[1] = tested on: patients with acute alcoholic hepatitis; settings: systemic infliximab in association with prednisolone; cited from earlier work
DDAH-I = assay: Hepatic DDAH-I protein expression in BDL rats; assay type: in vivo, rat; settings: BDL rats + infliximab vs BDL vehicle and sham
Description: as §1
Extracts containing equal amounts of protein were denatured and separated on 4-12% NuPAGE Bis-Tris Gels and blotted on to PVDF membranes (Invitrogen, UK). […] The bands were visualized using an enhanced ECL detection kit and quantified by densitometry. Loading accuracy was evaluated via membrane rehybridization with antibodies against mouse and rabbit anti-α tubulin (1:1000; upstate and Cell Signaling Technology, respectively).
After 5 days of treatment rats underwent direct portal pressure assessment and were then sacrificed, and plasma and liver tissue collected for analysis. eNOS activity was determined radiometrically by the conversion of labelled radioactive arginine to citrulline. Protein expression for eNOS, iNOS, DDAH-1, and DDAH-2 were measured by standard Western Blotting techniques. […]

ADMA = assay: Liver tissue ADMA concentration in BDL rats; assay type: in vivo, rat; settings: BDL rats + infliximab vs BDL vehicle
Description: as §1
ADMA, SDMA and arginine were measured using fragmentation specific stable isotope dilution electrospray tandem mass spectrometry. In brief, samples de-proteinized with deuterated ADMA, SDMA and arginine, were chromatographed (acetonitrile:water, 1:1, with 0.025% formic acid) on a Teicoplanin guard column 10 mm×2.1 mm ID (Chirobiotic T, ASTEC Ltd, Congleton, UK), and analysed using a SCIEX API4000 (Applied Biosystems, Warrington, UK) in positive ion multiple reaction monitoring mode.

BDL rats = assay: Direct portal pressure measurement in bile duct ligated (BDL) rats; assay type: in vivo, rat
Description: as §1
Three groups of rats were used in these experiments, BDL rats treated with vehicle, BDL rats treated with the anti-TNF monoclonal antibody infliximab, and sham treated rats.
Four weeks after BDL or sham surgery in Sprague-Dawley rats (n=14), BDL rats were gavaged with 5 mg/kg of the FXR agonist INT-747 (6-ethyl chenodeoxycholic acid, Intercept Pharmaceuticals Inc.) in vehicle (corn oil) for 5 days or with vehicle alone.
as §2
This method, termed ‘hydrodynamic gene therapy’, was used to determine the effect of transduction of DDAH-1 in BDL rats on portal pressure.
A plasmid containing human DDAH-1 cDNA was injected via a branch of the jugular vein into BDL or sham rodents produced as above. A control plasmid containing GFP was used as a control for the intervention in BDL animals. The animals underwent direct portal pressure measurement at 48 hours post intervention and plasma and tissue was collected for analysis of liver DDAH-1 mRNA (rtPCR) and protein expression (western blotting), as well as routine histology and biochemistry.

| Molecule | eNOS activity (14C-citrulline counts per minute per milligram of protein) (eNOS) | severe infections [1] | DDAH-I expression in liver (DDAH-I) | DDAH-I expression in liver (DDAH-I; listed as Infliximab) | ADMA levels in liver tissue (ADMA) | portal pressure (BDL rats; BDL cirrhotic rats after infliximab, BDL 14±0.7, sham 5.5±0.3 mmHg) [mmHg] | reduction in portal pressure (BDL rats; BDL rats + infliximab compared with BDL rats (vehicle / iso-volumetric saline)) | reduction in portal pressure (BDL rats; BDL rats + infliximab compared with BDL rats (vehicle / iso-volumetric saline), listed as Infliximab) | reduction in portal pressure (BDL rats; BDL rats, INT-747 5 mg/kg gavage for 5 days, compared to BDL+vehicle, p<0.01) [%] |
| --- | --- | --- | --- | --- | --- | --- | --- | --- | --- |
| infliximab: anti-TNF monoclonal antibody infliximab | restores eNOS activity towards similar levels to those seen in the sham animals; also recorded: Increased | high level of severe infections | restored towards sham levels; also recorded: significant increase | restored towards sham levels | substantially reduced; also recorded: reduction | 9.5±0.6 | greater than 33% | more than 30% |  |
| CC[C@H]1[C@@H](O)[C@@H]2[C@H](CC[C@]3(C)[C@@H]([C@H](C)CCC(=O)O)CC[C@@H]23)[C@@]2(C)CC[C@@H](O)C[C@@H]12 [INT-747, 6-ethyl chenodeoxycholic acid] |  |  |  |  |  |  |  |  | 30 |

— patent US20120237503A1, “Screening Method and Therapy with Agonists of DDAH I” (UCL BUSINESS PLC, priority 2009, published 2012)
